In paper PMC10086185, “Synthesis, radiolabeling, and evaluation of a (4-quinolinoyl)glycyl-2-cyanopyrrolidine analogue for fibroblast activation protein (FAP) PET imaging” (Frontiers in Bioengineering and Biotechnology, 2023):

Key:
[1] = In vitro stability in PBS saline, 20% EtOH solution and rat serum (radio-HPLC); format: physicochemical; settings: 4 h at 37°C
Method: The in vitro stability of [^18F]3 was performed in PBS saline, 20% EtOH solution, and rat serum. In general, a solution of [^18F]3 (50 µL, approximately 20 KBq) was added to the PBS saline (2 mL), 20% EtOH solution (2 mL), and rat serum (2 mL), and these solutions were suspended in a water bath under 37°C for […]. Samples from PBS saline and 20% EtOH solution were loaded into the analytical radio-HPLC for the detection of RCP at designated time points (0, 1, 2, and 4 h), with the same condition described previously. The samples from the rat serum were added the same volume of acetonitrile to deposit the plasma protein, and the supernatant obtained by centrifugation (×12,000 r/min, 5 min) was analyzed at corresponding time points.

U87MG cells = assay: Cellular uptake of [^18F]3 in U87MG cells; format: cell-based; settings: U87 cells
Method: (§1) Briefly, all cells were divided into the following two groups: A: blocking group and B: vehicle group. All cells were cultured, grouped, and plated (approximately 2*10^6 cells per well) before use. Cells were treated with [^18F]3 (74 KBq) and incubated at 37°C under a 5% CO2 atmosphere. […] Incubated at 37°C for 1 h, the medium from each well was removed, and the cells were washed twice with 1 mL of PBS. The medium and the PBS from each well were combined and counted in a Gamma counter (PerkinElmer Wizard 2470) for radioactivity counts. The cells were then handled with 1 mL of 1 M NaOH, and the lysates were also counted in the Wizard 2470 gamma counter. The uptake ratios for each group were then calculated with this equation: %Dose = […](medium counts + PBS counts + cell lysate counts).

[2] = tested on: A549-FAPI cells (human FAP-expressing A549); assay: Cellular uptake of [^18F]3 in A549-FAPI cells; format: cell-based
Method: as §1

U87MG xenograft tumors = assay: Micro-PET/CT imaging, U87MG xenograft tumors; format: in vivo, BALB/c nude mice; settings: U87MG xenografted tumors, within 90 min
Method: BALB/c nude mice used in this study were obtained from the Animal Center of Sichuan University. Tumor-bearing mouse models were established by the subcutaneous injection of 100 µL of PBS suspension containing approximately 1*10^6 tumor cells to the body side of the subjects. The tumor volume was monitored every day, and the tumor-bearing mice were ready for imaging once the tumor volume reached 0.5 mm^3 (tumor volume can be calculated by this equation: Volume = 0.5 * long tail * short tail *short tail). Micro-PET/CT imaging studies were performed on the IRIS Micro-PET/CT system (Inviscan SAS, France). Tumor-bearing mice were injected with approximately 11.2–14.8 MBq of [^18F]3 (200 µL) via the tail vein under anaesthetization by isoflurane. Static PET images were obtained at designated time points and were reconstructed with a 3D-OSEM algorithm using a Monte Carlo-based accurate detector model. Then, 170 sec-CT acquisition was conducted with 50 kV, 1 mA X-ray output for attenuation correction and anatomical orientation. […]
BALB/c nude mice used in this study were obtained from the Animal Center of Sichuan university. […] The tumor volume was monitored every day and the tumor-bearing mice were ready for imaging once the tumor volume reach 0.5 mm^3 (tumor volume can be calculated by this equation: Volume = 0.5 * long tail * short tail *short tail). […]

[3] = 1 h, pre-treatment with compound 3, 10 µM

In the case of `N#C[C@@H]1CC(F)(F)CN1C(=O)CNC(=O)c1ccnc2ccc([18F])cc12` [[^18F]3], the “intact [^18F]3” value [1] is reported as “over 90%”, the “Cellular uptake ratio, blocking group” value (U87MG cells; [3]) is reported as 1.19% ± 0.02% and the Cellular uptake ratio (U87MG cells; 1 h incubation, vehicle group) is reported as 1.50% ± 0.13%. For the same compound, the “Cellular uptake ratio, blocking group” value [2, 3] was 0.56% ± 0.03%, the Cellular uptake ratio ([2]; 1 h incubation, vehicle group) was 1.07% ± 0.01% and the “Tumor SUV” value (U87MG xenograft tumors) was “greater than 0.22”.
